{
  "source": "patent US20090142285A1",
  "about": "“COSMETIC COMPOSITION COMPRISING ASCORBIC ACID 2-GLUCOSIDE AND ERGOTHIONEINE” (LVMH RECHERCHE, priority 2007, published 2009)",
  "key": {"[1]": {"tested_on": "mouse skin cells placed in culture", "conditions": "cited from earlier work"}, "[2]": {"tested_on": "glycosylase type DNA repair enzymes", "test": "OLISA biochip: excision of modified DNA bases by nuclear extracts of treated fibroblasts, donor (FHN 1C)", "format": "cell-based, human", "description": "(§1) Fibroblasts were obtained from a breast sample from a person and from photo-protected skin of a person.\n(§2) Fibroblasts from each of the donors, […] (FHN52) and […] (FHN 1C), were cultured and treated in the exponential growth phase.\n(§3) Fibroblasts were treated with ergothioneine (AGI Dermatics, Newport, N.Y., USA) at a non-cytotoxic concentration of 4 mM for 24 hours.\n(§4) Treatment of fibroblasts with ascorbic acid 2-glucoside (Siber Hegner, Miribel, France) was carried out at a non-cytotoxic concentration of 50 μM of […] for 24 hours.\n(§5) Nuclear extracts were prepared in order to obtain protein solutions containing the repair enzymes of interest.\n(§6) Extracts were used at a final concentration of 10 μg/ml.\n(§7) OLISA technology (Bonnet-Duquennoy et al., Eur. J. Dermatol., 16, 2, 136-140 2006) was used to measure the excision of nucleic bases modified by glycosylase type DNA repair enzymes.\n(§8) The principle (FIG. 1) is described in the publication entitled: “An oligonucleotide micro-array for the monitoring of repair enzyme activity toward different DNA damage”, Sauvaigo et al., Annal. Biochem. (2004); 333: 182-192.\n(§9) Labelled oligonucleotide probes immobilised on the support generate synthetic double strand DNA containing in their base sequence, the altered base whose repair activity by cellular enzymes is being studied.\n(§10) The probes were determined in order to study enzyme repair typical lesions resulting from exposure to oxidative stress (FIG. 2).\n(§11) An OLISA format chip (96-well plate; bioMérieux, Grenoble, France) with 17 spots was functionalised by oligonucleotides containing the various lesions of interest (LAN synthesis, CEA, Grenoble, France).\n(§12) Functionalised wells were incubated at 30° C. in the presence of the extract of interest.\n(§13) The duration of digestion chosen is 45 minutes for the experiments. Extracts were deposited in four wells.\n(§14) Thus for each lesion, the percentage of lesions remaining after the extract activity is determined by calculating the ratio of “extract” well signals with respect to control wells which represent 100% lesions (calculation carried out using the mean of the 8 values obtained).\n(§15) Similarly, to determine the effect of each of the 2 active ingredients on specific digestion of extracts, data obtained for each of the lesions were normalised by data obtained with the control oligonucleotide normalised by the control."}, "[3]": {"tested_on": "non-specific digestive activity (nuclease) of cell extracts", "test": "OLISA biochip: non-specific digestion of control oligonucleotide (no lesion) by extracts of treated fibroblasts", "format": "cell-based, human", "conditions": "immediately after treatment, 2 donors", "description": "as §2, §3, §4, §5, §7\nFor this study, 2 spots per lesion of interest or control oligonucleotide (without lesion) and 3 spots used to direct the readings were used.\nas §12, §13\nIn order to determine the effect of ergothioneine, on the one hand, and of ascorbic acid 2-glucoside, on the other, on non-specific digestion of extracts, data obtained with the control oligonucleotide normalised by the control were used.\nIn the same way, an analysis was carried out for each of the 2 donors tested. […]"}, "[4]": {"tested_on": "glycosylase type DNA repair enzymes", "test": "OLISA biochip: excision of modified DNA bases by nuclear extracts of treated fibroblasts, donor (FHN52)", "format": "cell-based, human", "conditions": "for digestion activity (elimination of modified DNA bases formed as a result of oxidative stress): overall conclusion", "description": "as §1, §2, §3, §4, §5, §6, §7, §8, §9, §10, §11, §12, §13, §14, §15"}, "keratinocytes": {"tested_on": "keratinocytes", "conditions": "cited from earlier work"}, "Fibroblasts": {"tested_on": "Fibroblasts", "test": "Cytotoxicity of the treatment concentration on fibroblasts", "format": "cell-based, human", "conditions": "4 mM for 24 hours", "description": "as §3, §4"}, "human cell lines": {"tested_on": "human cell lines", "conditions": "cited from earlier work"}, "[5]": {"conditions": "ascorbic acid 2-glucoside 50 μM, 24 hours after treatment"}, "[6]": {"conditions": "ascorbic acid 2-glucoside 50 μM, 24 hours after treatment, donor (FHN 52)"}, "[7]": {"conditions": "ergothioneine 4 mM 24 hours, immediately after treatment"}, "[8]": {"conditions": "ergothioneine 4 mM 24 hours, rinsed, recultured without ergothioneine a further 24 hours, donor (FHN 52)"}, "[9]": {"conditions": "ergothioneine 4 mM 24 hours, donor (FHN 52), immediately after treatment"}},
  "data": [
    {"smiles": "O=C1O[C@H]([C@@H](O)CO)C(O)=C1O[C@H]1O[C@H](CO)[C@@H](O)[C@H](O)[C@H]1O", "note": "[ascorbic acid 2-glucoside, 2-O-α-D-Glucopyranosyl L-ascorbic acid]", "values": [
      {"measurement": "cell DNA fragmentation after damage caused by UVA or UVB", "setting": "[1]", "result": "reduction in the cell DNA fragmentation"},
      {"measurement": "residual percentage of 8 oxodG lesion", "setting": "[2]; [5]", "result": "decreases significantly"},
      {"measurement": "residual percentage of formylamine lesion", "setting": "[2]; [5]", "result": "decreases significantly"},
      {"measurement": "residual percentage of inosine lesion", "setting": "[2]; [5]", "result": "decreases significantly"},
      {"measurement": "residual percentage of uracil lesion", "setting": "[2]; [5]", "result": "decreases significantly"},
      {"measurement": "effect on the control oligonucleotide (non-specific digestion)", "setting": "[3]; ascorbic acid 2-glucoside 50 μM for 24 hours", "result": "did not have a significant effect"},
      {"measurement": "residual percentage of 8-oxo-dG lesion", "setting": "[4]; [6]", "result": "decreases significantly"},
      {"measurement": "residual percentage of formylamine lesion", "setting": "[4]; [6]", "result": "decreases significantly"},
      {"measurement": "residual percentage of inosine lesion", "setting": "[4]; [6]", "result": "decreases significantly"},
      {"measurement": "residual percentage of uracil lesion", "setting": "[4]; [6]", "result": "decreases significantly"},
      {"measurement": "digestion activity (elimination of modified DNA bases formed as a result of oxidative stress)", "setting": "[4]; ascorbic acid 2-glucoside 50 μM, fibroblast extracts of donor", "result": "significantly increases"},
      {"measurement": "protection against cytotoxicity caused by UVB", "setting": "keratinocytes", "result": "effective agent in protecting keratinocytes"}
    ]},
    {"smiles": "C[N+](C)(C)[C@@H](Cc1c[nH]c(=S)[nH]1)C(=O)[O-]", "note": "[ergothioneine]", "values": [
      {"measurement": "cytotoxicity at treatment concentration", "setting": "Fibroblasts", "result": "non-cytotoxic"},
      {"measurement": "residual percentage of formylamine lesion", "setting": "[2]; [7]", "result": "decreases significantly"},
      {"measurement": "residual percentage of uracil lesion", "setting": "[2]; [7]", "result": "decreases significantly"},
      {"measurement": "effect on the control oligonucleotide (non-specific digestion)", "setting": "[3]; ergothioneine 4 mM for 24 hours", "result": "no significant effect"},
      {"measurement": "residual percentage of 8-oxo-dG lesion", "setting": "[4]; [8]", "result": "decreases significantly"},
      {"measurement": "residual percentage of HmdU lesion", "setting": "[4]; [8]", "result": "decreases significantly"},
      {"measurement": "residual percentage of ethenoda lesion", "setting": "[4]; [8]", "result": "decreases significantly"},
      {"measurement": "residual percentage of formylamine lesion", "setting": "[4]; [8]", "result": "decreases significantly"},
      {"measurement": "residual percentage of inosine lesion", "setting": "[4]; [8]", "result": "decreases significantly"},
      {"measurement": "residual percentage of formylamine lesion", "setting": "[4]; [9]", "result": "decreases significantly"},
      {"measurement": "residual percentage of inosine lesion", "setting": "[4]; [9]", "result": "decreases significantly"},
      {"measurement": "residual percentage of uracil lesion", "setting": "[4]; [9]", "result": "decreases significantly"},
      {"measurement": "residual percentage of 8 oxodG lesion", "setting": "[4]; ergothioneine 4 mM 24 hours, donor (FHN 52), immediately after treatment, normalised to control oligonucleotide", "result": "decreases significantly"},
      {"measurement": "digestion activity (elimination of modified DNA bases formed as a result of oxidative stress)", "setting": "[4]; ergothioneine 4 mM, fibroblast extracts", "result": "significantly increases"},
      {"measurement": "DNA oxidation caused by peroxinitrites", "setting": "human cell lines", "result": "inhibits"},
      {"measurement": "cell death triggered by hydrogen peroxide", "setting": "human cell lines", "result": "inhibits"}
    ]}
  ]
}
